In ChEMBL document CHEMBL4602628, “Design, synthesis, and enzymatic characterization of quinazoline-based CYP1A2 inhibitors” (Bioorg Med Chem Lett, 2020):

Biological target: T1, Cytochrome P450 1A2 (Homo sapiens, UniProt P05177)
T1 sequence (P05177 whole entry): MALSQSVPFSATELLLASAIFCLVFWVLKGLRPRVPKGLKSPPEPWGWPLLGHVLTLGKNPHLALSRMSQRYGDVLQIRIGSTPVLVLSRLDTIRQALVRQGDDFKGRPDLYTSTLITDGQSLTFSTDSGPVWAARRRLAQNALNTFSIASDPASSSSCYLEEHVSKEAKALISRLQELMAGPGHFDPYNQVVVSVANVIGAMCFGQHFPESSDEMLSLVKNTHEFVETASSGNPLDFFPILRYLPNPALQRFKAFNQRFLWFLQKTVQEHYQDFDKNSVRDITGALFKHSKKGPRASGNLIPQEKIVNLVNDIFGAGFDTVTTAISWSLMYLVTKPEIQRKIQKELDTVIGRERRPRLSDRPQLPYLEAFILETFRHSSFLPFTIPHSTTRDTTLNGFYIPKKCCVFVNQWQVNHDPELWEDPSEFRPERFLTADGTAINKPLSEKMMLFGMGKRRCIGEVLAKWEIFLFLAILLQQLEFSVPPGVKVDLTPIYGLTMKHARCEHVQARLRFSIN
Assay: Inhibition of recombinant human CYP1A2 using luciferin-ME as substrate preincubated for 10 mins followed by NADPH addition and measured after 10 to 30 mins by P450-Glo assay

## CN(C)c1ccc(-c2ncc3ccccc3n2)cc1
  IC50: 4200 nM

## c1ccc2nc(-c3ccnc4ccccc34)ncc2c1
  IC50: 960 nM

## O=[N+]([O-])c1cccc(-c2ncc3ccccc3n2)c1
  IC50: 1200 nM
